Laboratory results from patent US20090227533A1, “miR-34 Regulated Genes and Pathways as Targets for Therapeutic Intervention” (priority 2007, published 2009).

What was measured:
[1] = system: prostate cancer cells PPC-1, Du145, LNCaP and RWPE2; assay: Alamar Blue proliferation assay, average over four prostate cancer cell lines; format: cell-based, human
Description: The inventors assessed the therapeutic effect of hsa-miR-34a for prostate cancer by using four individual human prostate cancer cell lines. To measure cellular proliferation of prostate cancer cells, the following prostate cancer cell lines were used: PPC-1, derived from a bone metastasis; Du145, derived from a brain metastasis; RWPE2, derived from prostate cells immortalized by human papillomavirus 18 and transformed by the K-RAS oncogene; and LNCaP, derived from a lymph node metastasis (Bello et al., 1997; Pretlow et al., 1993; Stone et al., 1978; Brothman et al., 1991; Horoszewicz et al., 1980). PPC-1 and Du145 cells lack expression of the prostate-specific antigen (PSA) and are independent of androgen receptor (AR) signaling. In contrast, RWPE2 and LNCaP cells test positive for PSA and AR. Cells were transfected with synthetic hsa-miR-34a (Pre-miR™-hsa-miR-34a, Ambion cat. no. AM17100) or negative control miRNA (NC; Pre-miR™ microRNA Precursor Molecule-Negative Control #2; Ambion cat. no. AM17111) in a 96-well format using a lipid-based transfection reagent. […] Proliferation was assessed 4-7 days post-transfection using Alamar Blue™ (Invitrogen) following the manufacturer's instructions. […] Fluorescent light units (FLU) were measured after 3 hours, normalized to the control, and plotted as percent change in proliferation. […]

[2] = system: prostate cancer cells (22Rv1); conditions: cited from earlier work

In the case of “hsa-miR-34a: synthetic miRNA; mature sequence UGGCAGUGUCUUAGCUGGUUGUU (MIMAT0000255; SEQ ID NO:1) (synthetic miRNA, chemistry not given here)”, the “average inhibition of cellular proliferation” value ([1]; average over four prostate cancer cell lines, 30 nM, relative to negative control miRNA) is listed as 37.18%, the “growth-inhibitory activity compared with siEg5” value ([1]; prostate cancer cell lines) is listed as “comparable to that of Eg5-directed siRNA” and the proliferation [2] is listed as “inhibits the proliferation”.
